Source: patent publication US20040204499A1, “Preparation for breast duct fluid collection” (priority 2000, published 2004)

Assay: Clinical trial of breast ductal lavage with topical, subcutaneous and/or intraductal anesthesia; patient-recorded pain and post-procedure notes
Assay type: in vivo, human
Procedure: A clinical trial was conducted at several different clinical sites by several different physician practitioners. Sometimes the procedures were conducted by practitioners using topical application of anesthetic, subcutaneous anesthesia injection, sometimes using intraductal anesthesia infusion and sometimes all three. […] Apply EMLATM cream (topical anesthetic cream) to the nipple and areola as described in the package insert. […] Dekeratinize the nipple using gauze and a small amount of Omniprep® paste (dekeratinizing agent) or […] gel. Clean the nipple and areola with alcohol and gauze. […] Before attempting ductal catheterization, identify the ductal orifice under magnification, by using the breast aspirator and/or by gently squeezing on the nipple to yield discharge. Use of an incandescent lamp to warm the nipple may help relax the sphincter, thus making cannulation of the duct easier. […] Prepare the nipple and areola with a suitable disinfectant and perform nipple field block as needed. […] Open the catheter package. For intraductal administration of anesthetic, attach anesthetic syringe to inflow (i.e., lower) port and prime the tubing until fluid is expressed through the catheter body and outflow port; leave the syringe attached. […] Ensure that approximately 1 cm of the guidewire protrudes from the catheter tip. Under magnification assistance, if necessary, introduce the pre-seated guidewire/catheter unit into the desired ductal orifice to confirm the location and orientation of the duct. Advance the catheter gradually until the catheter is seated; remove the wire completely. […] Crimp the outflow tubing to prevent return of the anesthetic into the inflow tube. Administer approximately 1 cc of anesthetic through the inflow port (i.e., lower port). Administer more anesthetic as indicated. Disconnect the syringe and set aside for later use. Twist the plunger of a sterile 10 cc syringe to free the seal and attach the syringe to the outflow port. […] Connect saline filled syringe to the inflow (i.e., lower) port. The catheter is now ready for use. […] When Performing saline ductal lavage (i.e. fluid infusion and return): Crimp the outflow tubing to prevent early return into the outflow syringe. Using a 10 cc syringe filled with saline, gradually infuse saline in 0.5 cc increments, or until there is slight resistance or some discomfort (typically 2-3 mLs). Release the crimp on the outflow tubing. Massage the breast towards the nipple with both hands for 30 seconds, especially over the infused duct, taking care not to dislodge the catheter. Cloudy fluid and/or small air bubbles may collect in the catheter body, indicating fluid flow. Crimp the inflow tubing and apply suction to the outflow tubing. […]

CCN(CC)CC(=O)Nc1c(C)cccc1C [lidocaine]
lavage pain, intraductal administration compared to subcutaneous injection of anesthetic (conclusion drawn from Table I): no greater
pain upon intraductal administration of anesthetic (in some cases, particularly practitioner RP): very low
post procedure notes (patient feedback a day to two weeks after procedure, intraductal lidocaine only): pain
bruising (practitioner PS, routine subcutaneous administration in a field block): highest amount of bruising
